Assay results: the OPERA property sets (Mansouri et al. 2018)

Details: for log10 biotransformation half-life (days) / log10 BCF: fish

| SMILES | melting point [°C] | boiling point [°C] | further results |
| --- | --- | --- | --- |
| Cc1nc(N(C)C)nc(OC(=O)N(C)C)c1C | 90.5 | – | log10 Koc (L/kg): 1.9; log10 vapour pressure (mmHg): -5.14 |
| NCCc1ccccc1 | -60 | 198 | ready biodegradability: readily biodegradable |
| C=CC1(C(C)CCC)C(=O)NC(=O)NC1=O (stereo unspecified) | 91 | – | – |
| COC(=O)c1ccc(Cl)cc1[N+](=O)[O-] | 44 | – | – |
| CCOC(=O)C(F)Cl (stereo unspecified) | – | 129 | – |
| CC1CCCCN1CCCOC(=O)c1ccc(Cl)c(Cl)c1 (stereo unspecified) | – | – | log10 Koc (L/kg): 3.7 |
| CC=C(C)C(C)(C)C | – | 112 | – |
| CNc1ccccc1C(=O)OC | 19 | 255 | – |
| CCCCCC(=O)CCC | – | 188 | – |
| C=COC(=O)CCl | – | – | ready biodegradability: readily biodegradable |
| Nc1ccc(S(=O)(=O)Nc2nccs2)cc1 | 189 | – | – |
| Sc1c(Cl)c(Cl)c(Cl)c(Cl)c1Cl | 232 | – | – |
| CCCCC(=O)O[C@]1(C(=O)CO)CC[C@H]2[C@@H]3CCC4=CC(=O)CC[C@]4(C)[C@H]3[C@@H](O)C[C@@]21C | 218 | – | – |
| FCCCCl | – | 80 | – |
| CC(C)(c1ccc(OCCO)cc1)c1ccc(OCCO)cc1 | – | – | ready biodegradability: not readily biodegradable |
| COc1ccc2c(c1)CC[C@@H]1[C@@H]2CC[C@]2(C)[C@@H](O)[C@H](O)C[C@@H]12 | 159 | – | – |
| C=CCCCl | – | 75 | – |
| Cc1ccc(O)cn1 | 169 | – | – |
| NCCCN1CCOCC1 | -15 | 220 | – |
| C/C=C/C(=O)OCC | – | 137 | – |
| CCOC(Cl)CCl (stereo unspecified) | – | 145 | – |
| COc1cc(OC)nc(Sc2cccc(Cl)c2C(=O)O)n1 | 150 | – | – |
| Nc1cnn(-c2ccccc2)c(=O)c1Cl | 205 | – | log10 Koc (L/kg): 2.08; log10 vapour pressure (mmHg): -6.35 |
| ClCC1CO1 (stereo unspecified) | -41.6 | 117 | log10 Koc (L/kg): 1; log10 vapour pressure (mmHg): 1.22; ready biodegradability: not readily biodegradable |

| SMILES | melting point [°C] | boiling point [°C] | further results |
| --- | --- | --- | --- |
| FC(F)(F)C(F)(F)C(F)(F)C(F)(F)C(F)(F)C(F)(F)C(F)(F)C(F)(F)I | 20.8 | 160 | – |
| CC(=O)O[C@]1(C(C)=O)CC[C@H]2[C@@H]3C[C@H](C)C4=CC(=O)CC[C@]4(C)[C@H]3CC[C@@]21C | 206 | – | – |
| CCC(C(=O)OC)c1ccccc1 (stereo unspecified) | 77.5 | 228 | – |
| OCCS | – | 158 | log10 vapour pressure (mmHg): 0.244 |
| CCOCCOC(C)(C)C | – | 148 | – |
| C=CCc1ccccc1O | -6 | 220 | ready biodegradability: readily biodegradable |
| OC(CCCN1CCCCC1)(c1ccccc1)c1ccccc1 | 104 | – | – |
| Cc1ccc2ccc(C)cc2c1 | 97 | 265 | log10 vapour pressure (mmHg): -2.25 |
| C=C(C)CC(C)=O | -72.6 | 124 | log10 vapour pressure (mmHg): 1.18 |
| CC(=O)Oc1cccc2cc3cccc(OC(C)=O)c3c(OC(C)=O)c12 | – | – | ready biodegradability: not readily biodegradable |
| [N-]=[N+]=NCC(=O)N[C@H](CO)[C@H](O)c1ccc([N+](=O)[O-])cc1 | 107 | – | – |
| CCC(C)c1cc([N+](=O)[O-])cc([N+](=O)[O-])c1OC(=O)C=C(C)C (stereo unspecified) | 70 | – | log10 vapour pressure (mmHg): -6.5 |
| O[C@H]1[C@H](O)[C@H](O)OC[C@H]1O | 158 | – | – |
| C[C@H](CN1CCOCC1)C(C(=O)N1CCCC1)(c1ccccc1)c1ccccc1 | 182 | – | – |
| COC(=O)C1=CCCN(C)C1 | – | 209 | log10 vapour pressure (mmHg): -1.1 |
| Clc1cc2c(cc1Cl)Oc1ccccc1O2 | 163 | – | log10 Koa: 8.5; log10 vapour pressure (mmHg): -5.53; log10 biotransformation half-life (days): 0.33 |
| Clc1cccc(-c2cc(Cl)ccc2Cl)c1 | – | – | log10 Henry constant (atm·m³/mol): -3.7 |
| O=C(O)c1cccnc1C(=O)O | 228 | – | ready biodegradability: readily biodegradable |
| CC(CCc1ccccc1)NCC(O)c1ccc(O)c(C(N)=O)c1 (stereo unspecified) | 188 | – | – |
| O=Cc1ccc(Cl)c(Cl)c1 | 44 | 248 | – |
| CCCC(CC)C(C)C (stereo unspecified) | – | 138 | – |
| CCOC(C)(C)OCC | – | 114 | – |
| CCC(=O)CC(C)=O | – | 160 | – |
| CN(C)CCCNc1c2ccccc2nc2cccc([N+](=O)[O-])c12 | 134 | – | – |

| SMILES | melting point [°C] | boiling point [°C] | further results |
| --- | --- | --- | --- |
| CCOC(=O)CO | – | 160 | – |
| c1ccc(N=Nc2ccc(Nc3ccccc3)cc2)cc1 | 90 | – | – |
| CN(C)c1ccc(C(=O)c2ccccc2)cc1 | 92.5 | – | – |
| CCCC(=O)OCc1ccccc1 | – | 239 | – |
| COc1cc(N)ccc1C | 56.5 | 251 | – |
| CCCCCCCCCCCC[C@H](C)O | 34 | 284 | – |
| C=CCc1cccc2ccccc12 | – | 266 | – |
| COC(=O)[C@]12OC[C@]34[C@H]([C@@H](O)[C@@H]1O)[C@@]1(C)CC(=O)C(O)=C(C)[C@@H]1C[C@H]3OC(=O)[C@H](OC(=O)/C=C(\C)C(C)C)[C@@H]24 | 226 | – | – |
| CC(C)C[C@@H](NC(=O)[C@@H](O)[C@H](N)Cc1ccccc1)C(=O)O | 234 | – | – |
| CS(=O)(=O)F | – | 124 | log10 vapour pressure (mmHg): 1.04 |
| Cc1cccc2ccc3ccccc3c12 | 53.5 | – | – |
| Clc1ccc(Cl)c(Br)c1 | 35 | 226 | – |
| Cc1ccccc1-n1c(C)nc2ccccc2c1=O | 120 | – | – |
| COc1cc(Cl)c(OC)cc1Cl | 134 | 268 | log10 Koc (L/kg): 3.1; log10 vapour pressure (mmHg): -2.52 |
| CCCCC(CC)COP(=O)(OCC(CC)CCCC)OCC(CC)CCCC (stereo unspecified) | -74 | – | log10 vapour pressure (mmHg): -7.08; ready biodegradability: not readily biodegradable; log10 BCF: 1.7; log10 biotransformation half-life (days): -0.29 |
| CCCC(O)CCC | -41.2 | 156 | log10 vapour pressure (mmHg): -0.0048 |
| C=CCOC(=O)C(=C)C | – | – | log10 vapour pressure (mmHg): 0.761; ready biodegradability: readily biodegradable |
| CC(C)N(CCC(C(N)=O)(c1ccccc1)c1ccccn1)C(C)C (stereo unspecified) | 94.8 | – | – |
| O=C(O)Cc1cccc(O)c1 | 132 | – | – |
| CC(CC1CCCCC1)CC1CCCCC1 | 0.6 | 295 | – |
| CC(C)COc1ccc2ccccc2c1 | 31 | – | ready biodegradability: not readily biodegradable; log10 BCF: 2.8; log10 biotransformation half-life (days): 0.23 |
| c1ccc(Cc2nc3ccccc3[nH]2)cc1 | 187 | – | – |
| c1ccc2[nH]nnc2c1 | 100 | 350 | log10 Koc (L/kg): 1.69 |
| CC(C)Oc1ccc(Nc2ccccc2)cc1 | 79 | – | – |

| SMILES | melting point [°C] | boiling point [°C] | further results |
| --- | --- | --- | --- |
| O=[N+]([O-])c1ccc(Oc2c(Cl)cc(Cl)cc2Cl)cc1 | 106 | – | log10 Koc (L/kg): 3.9; ready biodegradability: not readily biodegradable; log10 BCF: 3.31; log10 biotransformation half-life (days): 0.75 |
| CNC(=O)Oc1c(C(C)(C)C)cc(C)cc1C(C)(C)C | – | – | ready biodegradability: not readily biodegradable |
| COc1ccccc1OCC(O)COC(N)=O (stereo unspecified) | 93 | – | ready biodegradability: not readily biodegradable |
| CCOC(=O)CNc1nc(Cl)nc(NC(C)C)n1 | 110 | – | – |
| c1ccc(C2CCCC(C3CCCCC3)C2)cc1 (stereo unspecified) | – | – | log10 biotransformation half-life (days): 0.45 |
| Cc1ccc([C@H](C)O)cc1 | – | 219 | – |
| CC(C)[C@@H](C)CC[C@@H](C)[C@H]1CC[C@H]2C3=CC[C@H]4C[C@@H](O)CC[C@]4(C)[C@H]3CC[C@]12C | 146 | – | – |
| FC(Cl)(Cl)Cl | -111 | 23.7 | log10 Henry constant (atm·m³/mol): -1.01; log10 vapour pressure (mmHg): 2.9 |
| CCCCC(=O)OC(=O)CCCC | -56.1 | 227 | – |
| NC1=C(Cl)C(=O)c2ccccc2C1=O | 199 | – | log10 vapour pressure (mmHg): -6.35 |
| CCCC(CC)C(C)CC (stereo unspecified) | – | 165 | – |
| Clc1cc(-c2c(Cl)c(Cl)c(Cl)c(Cl)c2Cl)c(Cl)c(Cl)c1Cl | – | – | log10 biotransformation half-life (days): 2.68 |
| Oc1ccc2ccc3cccc4ccc1c2c34 | 180 | – | log10 vapour pressure (mmHg): -8.32 |
| CCCCC(=O)OCc1ccco1 | – | 228 | – |
| CC(=O)Nc1cccc(Br)c1 | – | – | log10 Koc (L/kg): 2.01 |
| Cc1ccc(C)c(C)c1C | -6.2 | 205 | log10 biodegradation half-life (days): 0.602; log10 vapour pressure (mmHg): -0.443; log10 biotransformation half-life (days): 1.17 |
| c1ccc2n[nH]nc2c1 | – | – | ready biodegradability: not readily biodegradable |
| Cc1ccc2c(c1)CCCC2(C)C | – | 240 | log10 biotransformation half-life (days): 0.83 |
| Cc1c([N+](=O)[O-])cc(N)cc1[N+](=O)[O-] | 171 | – | – |
| O=C(O)Cc1c(Cl)ccc(Cl)c1Cl | 161 | – | log10 Koc (L/kg): 1.8 |
| C=C=O | -151 | -49.8 | log10 vapour pressure (mmHg): 4.02 |
| Clc1cc(Cl)c(-c2c(Cl)c(Cl)cc(Cl)c2Cl)cc1Cl | – | – | log10 Koa: 9.87; log10 biotransformation half-life (days): 2.45 |
| OCC1=CCN2CC[C@@H](O)[C@@H]12 | 120 | – | – |
| CC(=O)c1ccc(Cl)cc1 | 20 | 232 | – |

| SMILES | melting point [°C] | boiling point [°C] | further results |
| --- | --- | --- | --- |
| CCOC(C)Cl (stereo unspecified) | – | 93.5 | – |
| C[N+]12CCC(CC1)C(OC(=O)C(O)(c1ccccc1)c1ccccc1)C2.[Br-] (stereo unspecified) | 240 | – | – |
| C=C=CCCl | – | 88 | – |
| NC1CCC1 | – | 82 | – |
| O=Cc1cc(Cl)ccc1O | 100 | – | – |
| Cc1cc(C)c(C)s1 | – | 164 | – |
| CC(=O)COC(C)=O | – | 171 | – |
| S=C(SSSSC(=S)N1CCCCC1)N1CCCCC1 | – | – | ready biodegradability: not readily biodegradable; log10 BCF: 1.23 |
| O=C(C=CC(=O)Oc1ccccc1)Oc1ccccc1 | 73 | – | – |
| CSc1ccccc1N | – | 234 | – |
| O=[N+]([O-])c1ccccc1SSc1ccccc1[N+](=O)[O-] | 196 | – | – |
| Clc1cc(Cl)c(Cl)nc1Cl | 90.5 | 250 | – |
| Oc1c(Cl)cc(Cl)c(Cl)c1Cl | 70 | – | log10 Koc (L/kg): 3.35; log10 vapour pressure (mmHg): -3.18; ready biodegradability: not readily biodegradable; log10 BCF: 2.3 |
| Nc1cc(S(=O)(=O)O)cc2cc(S(=O)(=O)[O][Na])cc(O)c12 | – | – | log10 BCF: 0.46 |
| O=C(c1ccccc1)c1ccncc1 | 72 | 315 | – |
| CCC(CC)CO | – | 147 | log10 vapour pressure (mmHg): 0.185 |
| O=C1c2ccccc2C(=O)c2c1cccc2[N+](=O)[O-] | 232 | – | log10 vapour pressure (mmHg): -8.4 |
| c1ccc([Se][Se]c2ccccc2)cc1 | 63.5 | – | – |
| FC(F)=C(F)Br | – | -1 | log10 vapour pressure (mmHg): 3.29 |
| C=C(C)C=CC | 75.5 | – | – |
| O=C[C@@H]1C[C@@H]2[C@@H]3[C@H]1[C@@]1(Cl)C(Cl)(Cl)[C@]3(Cl)[C@@]3(Cl)[C@@H]2[C@]31Cl | – | – | log10 vapour pressure (mmHg): -6.7 |
| CNC(=O)Oc1cccc2c1OC(C)(C)C2 | 151 | – | log10 Koc (L/kg): 1.75; log10 vapour pressure (mmHg): -5.31 |
| COc1c2ccoc2cc2oc(C)cc(=O)c12 | 144 | – | – |
| O=Cc1cccc(Br)c1 | – | 234 | – |
